According to PubChem BioAssay AID1963978 (Molecular Pharmacology Branch, DTP, NCI, 2024):

System: 616215-338-R-J1-PDC spheroids with HUVEC/MSC, viability
Test: Anticancer human tumor 616215-338-R-J1-PDC patient-derived colon adenocarcinoma cell line growth inhibition [PI3K]
Conditions: for IC50: curve of first compound; for viability, T/C: stronger effect = lower value
Procedure, shortened: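 We assembled tumor spheroids that included a stromal compartment of HUVEC and MSCs, then exposed them to targeted agents alone and together with PI3K pathway inhibitors. Concentration series descended by half-log from clinically achievable Cmax levels. Viability served as the endpoint.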

[1] = second compound 0.0316 µM, first compound 0.0316 µM
[2] = second compound 0.0316 µM, first compound 0.1 µM
[3] = second compound 0.0316 µM, first compound 0.316 µM
[4] = second compound 0.0316 µM, first compound 1 µM
[5] = second compound 0.0316 µM, first compound 3.16 µM
[6] = second compound 0.0316 µM, first compound 10 µM
[7] = second compound 0.1 µM, first compound 0.0316 µM
[8] = second compound 0.1 µM, first compound 0.1 µM
[9] = second compound 0.1 µM, first compound 0.316 µM
[10] = second compound 0.1 µM, first compound 1 µM
[11] = second compound 0.1 µM, first compound 3.16 µM
[12] = second compound 0.1 µM, first compound 10 µM
[13] = second compound 0.316 µM, first compound 0.0316 µM
[14] = second compound 0.316 µM, first compound 0.1 µM
[15] = second compound 0.316 µM, first compound 0.316 µM
[16] = second compound 0.316 µM, first compound 1 µM
[17] = second compound 0.316 µM, first compound 3.16 µM
[18] = second compound 0.316 µM, first compound 10 µM
[19] = second compound 1 µM, first compound 0.0316 µM
[20] = second compound 1 µM, first compound 0.1 µM
[21] = second compound 1 µM, first compound 0.316 µM
[22] = second compound 1 µM, first compound 1 µM
[23] = second compound 1 µM, first compound 3.16 µM
[24] = second compound 1 µM, first compound 10 µM
[25] = second compound 3.16 µM, first compound 0.0316 µM
[26] = second compound 3.16 µM, first compound 0.1 µM
[27] = second compound 3.16 µM, first compound 0.316 µM
[28] = second compound 3.16 µM, first compound 1 µM
[29] = second compound 3.16 µM, first compound 3.16 µM
[30] = second compound 3.16 µM, first compound 10 µM
[31] = second compound 10 µM, first compound 0.0316 µM
[32] = second compound 10 µM, first compound 0.1 µM
[33] = second compound 10 µM, first compound 0.316 µM
[34] = second compound 10 µM, first compound 1 µM
[35] = second compound 10 µM, first compound 3.16 µM
[36] = second compound 10 µM, first compound 10 µM
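Note: spheroids exposed to agents for seven days before the viability read.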

CC1(C)CCC(CN2CCN(c3ccc(C(=O)NS(=O)(=O)c4ccc(NCC5CCOCC5)c([N+](=O)[O-])c4)c(Oc4cnc5[nH]ccc5c4)c3)CC2)=C(c2ccc(Cl)cc2)C1 + CC(Nc1ncnc2nc[nH]c12)c1cc2cccc(Cl)c2c(=O)n1-c1ccccc1
IC50 (second compound 0.0316 µM): 4.56 µM
IC50 (second compound 0.1 µM): 4.67 µM
IC50 (second compound 0.316 µM): 4.79 µM
IC50 (second compound 1 µM): 4.99 µM
IC50 (second compound 3.16 µM): 5.14 µM
IC50 (second compound 10 µM): 5.53 µM
viability, T/C [1]: 98.3%
viability, T/C [2]: 105%
viability, T/C [3]: 110%
viability, T/C [4]: 104%
viability, T/C [5]: 71.3%
viability, T/C [6]: 4.22%
viability, T/C [7]: 109%
viability, T/C [8]: 103%
viability, T/C [9]: 101%
viability, T/C [10]: 96.7%
viability, T/C [11]: 74.2%
viability, T/C [12]: 3.61%
viability, T/C [13]: 107%
viability, T/C [14]: 103%
viability, T/C [15]: 107%
viability, T/C [16]: 103%
viability, T/C [17]: 76.6%
viability, T/C [18]: 2.7%
viability, T/C [19]: 101%
viability, T/C [20]: 107%
viability, T/C [21]: 108%
viability, T/C [22]: 110%
viability, T/C [23]: 80.8%
viability, T/C [24]: 2.87%
viability, T/C [25]: 108%
viability, T/C [26]: 111%
viability, T/C [27]: 99.2%
viability, T/C [28]: 123%
viability, T/C [29]: 85%
viability, T/C [30]: 2.42%
viability, T/C [31]: 118%
viability, T/C [32]: 105%
viability, T/C [33]: 105%
viability, T/C [34]: 105%
viability, T/C [35]: 94.9%
viability, T/C [36]: 2.49%

C[C@@H](NC(=O)c1ncnc(N)c1Cl)c1ncc(C(=O)Nc2cc(C(F)(F)F)c(Cl)cn2)s1 + CC(Nc1ncnc2nc[nH]c12)c1cc2cccc(Cl)c2c(=O)n1-c1ccccc1
IC50 (second compound 0.0316 µM): > 10 µM
IC50 (second compound 0.1 µM): > 10 µM
IC50 (second compound 0.316 µM): > 10 µM
IC50 (second compound 1 µM): > 10 µM
IC50 (second compound 3.16 µM): > 10 µM
IC50 (second compound 10 µM): 9.7 µM
viability, T/C [1]: 100%
viability, T/C [2]: 115%
viability, T/C [3]: 105%
viability, T/C [4]: 105%
viability, T/C [5]: 114%
viability, T/C [6]: 88.5%
viability, T/C [7]: 99.7%
viability, T/C [8]: 101%
viability, T/C [9]: 97%
viability, T/C [10]: 118%
viability, T/C [11]: 105%
viability, T/C [12]: 90.5%
viability, T/C [13]: 112%
viability, T/C [14]: 105%
viability, T/C [15]: 101%
viability, T/C [16]: 110%
viability, T/C [17]: 99%
viability, T/C [18]: 74.6%
viability, T/C [19]: 104%
viability, T/C [20]: 106%
viability, T/C [21]: 104%
viability, T/C [22]: 96.6%
viability, T/C [23]: 113%
viability, T/C [24]: 64.8%
viability, T/C [25]: 95.9%
viability, T/C [26]: 103%
viability, T/C [27]: 104%
viability, T/C [28]: 98.4%
viability, T/C [29]: 99.4%
viability, T/C [30]: 67.2%
viability, T/C [31]: 95.4%
viability, T/C [32]: 113%
viability, T/C [33]: 98.8%
viability, T/C [34]: 98.5%
viability, T/C [35]: 88.5%
viability, T/C [36]: 48.4%

Cn1ncnc1[C@H]1c2n[nH]c(=O)c3cc(F)cc(c23)N[C@@H]1c1ccc(F)cc1 + CC(Nc1ncnc2nc[nH]c12)c1cc2cccc(Cl)c2c(=O)n1-c1ccccc1
IC50 (second compound 0.0316 µM): > 0.1 µM
IC50 (second compound 0.1 µM): > 0.1 µM
IC50 (second compound 0.316 µM): > 0.1 µM
IC50 (second compound 1 µM): > 0.1 µM
IC50 (second compound 3.16 µM): > 0.1 µM
IC50 (second compound 10 µM): > 0.1 µM
viability, T/C (second compound 0.0316 µM, first compound 0.000316 µM): 104%
viability, T/C (second compound 0.0316 µM, first compound 0.001 µM): 104%
viability, T/C (second compound 0.0316 µM, first compound 0.00316 µM): 102%
viability, T/C (second compound 0.0316 µM, first compound 0.01 µM): 96.8%
viability, T/C [1]: 105%
viability, T/C [2]: 96.8%
viability, T/C (second compound 0.1 µM, first compound 0.000316 µM): 87.6%
viability, T/C (second compound 0.1 µM, first compound 0.001 µM): 97.8%
viability, T/C (second compound 0.1 µM, first compound 0.00316 µM): 97%
viability, T/C (second compound 0.1 µM, first compound 0.01 µM): 92.9%
viability, T/C [7]: 101%
viability, T/C [8]: 93.5%
viability, T/C (second compound 0.316 µM, first compound 0.000316 µM): 98.5%
viability, T/C (second compound 0.316 µM, first compound 0.001 µM): 95.6%
viability, T/C (second compound 0.316 µM, first compound 0.00316 µM): 106%
viability, T/C (second compound 0.316 µM, first compound 0.01 µM): 96.9%
viability, T/C [13]: 96.9%
viability, T/C [14]: 101%
viability, T/C (second compound 1 µM, first compound 0.000316 µM): 101%
viability, T/C (second compound 1 µM, first compound 0.001 µM): 109%
viability, T/C (second compound 1 µM, first compound 0.00316 µM): 99.7%
viability, T/C (second compound 1 µM, first compound 0.01 µM): 105%
viability, T/C [19]: 100%
viability, T/C [20]: 91.5%
viability, T/C (second compound 3.16 µM, first compound 0.000316 µM): 91.5%
viability, T/C (second compound 3.16 µM, first compound 0.001 µM): 108%
viability, T/C (second compound 3.16 µM, first compound 0.00316 µM): 106%
viability, T/C (second compound 3.16 µM, first compound 0.01 µM): 90%
viability, T/C [25]: 94.9%
viability, T/C [26]: 100%
viability, T/C (second compound 10 µM, first compound 0.000316 µM): 111%
viability, T/C (second compound 10 µM, first compound 0.001 µM): 106%
viability, T/C (second compound 10 µM, first compound 0.00316 µM): 102%
viability, T/C (second compound 10 µM, first compound 0.01 µM): 96.7%
viability, T/C [31]: 100%
viability, T/C [32]: 95%
